From patent US20230149561A1, “Functionalized Nanoparticles and Their Use in Treating Bacterial Infections” (The Board of Trustees of the Leland Stanford Junior …, priority 2019, published 2023)
Converted amounts (≈) assume the structure as drawn.

How the values were obtained:
[1] = tested on: P. aeruginosa wild-type PA01 biofilm; test: MBEC Assay biofilm eradication, 48 h old PA01 biofilm; format: cell-based, Pseudomonas aeruginosa; conditions: 24 h treatment
Method: (§1) (1-2) Bacteria culture is prepared and dispensed into a 96-well microplate. (3) The peg lid is placed in the bacteria culture and incubated to generate the biofilm. (4) The peg lid is gently rinsed to removed planktonic bacteria and a serial diluted test solution is dispensed into a new 96-well microplate. (5) The pegs covered in biofilm are incubated in the test solutions. (6) The peg lid is again gently rinsed to remove planktonic bacteria and placed in a new 96-well microplate containing recovery media. The peg lid is then sonicated to dislodge the biofilm into the recovery media. (7) Following sonication, the peg lid is replaced with a regular 96-well microplate lid and the plate containing recovery media is incubated. Following incubation, the OD650 absorbance is read on a spectrophotometer. Wells with an OD650 of less than 0.1 is evidence of biofilm eradication. (8) Spot plated on LB agar plates is use to confirm biofilm eradication.
(§2) Then, the minimum biofilm eradication concentration (MBEC) of FLOXIN®Otic against 48 h old PA01 and PA CSOM biofilms were determined using the commercially available MBEC Assay® (Innovotech Inc. Edmonton, Canada). […] Although PA CSOM produced quantitatively less biofilms than PAO1, it had the highest tolerance to ofloxacin. […]

[2] = tested on: PA01 (chromosomally encoded luminescent) biofilm; format: cell-based, Pseudomonas aeruginosa; conditions: 10-day-old PA01 biofilm, 24 hr treatment
Method: Biofilms of PA01 (10-day-old) were grown in the commercially available Calgary Biofilm Device (a 96-well plate)/minimum biofilm eradication concentration (MBEC) assay plate (46). […] Wells were washed with PBS and biofilms were disrupted with sonication and incubated in recovery media for turbidity measurements. A well was considered to have biofilm eradicated if the optical density at 650 nm (OD650) was less than 0.1 after 24 hours.

[3] = tested on: PA CSOM; test: Minimum inhibitory concentration against PA CSOM; format: cell-based; conditions: Pseudomonas aeruginosa
[4] = tested on: PA CSOM surviving persister cells, logarithmic-phase culture; test: Ofloxacin sensitivity of resuscitated persister cells in logarithmic-phase culture; format: cell-based, Pseudomonas aeruginosa; conditions: ofloxacin 100 μg/mL, 24 h
Method: FIG. 8: Cartoon depicting the flowchart to evaluate ofloxacin sensitivity to persister cells resuscitation in logarithmic-phase culture. (1) Surviving persister cells following the treatment of PA CSOM biofilm with ofloxacin at 3000 μg/mL were replaced in fresh media and incubated at 37° C. and were aerated at 225 r.p.m. (2) Cells in logarithmic-phase (OD600=0.3) were treated with either phosphate-buffered saline (PBS) or ofloxacin (100 μg/mL) for 24 h. (3) following the treatment, cells were plated to determine the number of bacteria per milliliter (CFU/mL).
The drug-refractory state associated with PA CSOM biofilm formation is mediated by tolerance rather than resistance to the antibiotic.

[5] = tested on: stationary phase planktonic PA; test: Killing of stationary phase planktonic PA; format: cell-based, Pseudomonas aeruginosa; conditions: 24 hr treatment, AuNC@CPP (16000 μg/mL), OFL (750 μg/mL)
[6] = tested on: PA01 logarithmic culture; test: Persistence assay, PA01; format: cell-based, Pseudomonas aeruginosa; conditions: ofloxacin 100 μg/mL, 24 h
Method: (§3) FIGS. 2A-2B: Increasing the fraction of persister cells promotes biofilm tolerance to ofloxacin. FIG. 2A) Susceptibility of surviving persister cells in logarithmic-phase culture. […] Data are presented as mean±s.d. (n=3). FIG. 2B) Comparison of persister cell fraction between PAO1 and PA CSOM in logarithmic-phase culture. Cells of logarithmic-phase were treated with ofloxacin ([…]) for 24 h and then plated for colony counting. The persister fraction was calculated as the ratio between the number of surviving bacteria after ofloxacin treatment compared to that measured in the corresponding untreated control (PBS). Data are presented as mean±s.d. (n=3). Statistical comparisons were done using a two-tailed t-test as indicated. ****p≤0.0001 and **p≤0.01.
(§4) PA01 and PA CSOM cultures were incubated at 37° C. with shaking. 1 mL of culture from each strain was aliquoted when reaching an OD600 of 0.3. Cultures were gently rinsed to remove LB medium and replaced with 1 mL of PBS. Ofloxacin (100 μg/mL) was added to the culture flasks (except for the control flasks). After 24 h incubation, ofloxacin was removed and the number of colony-forming units per milliliter (CFU/mL) was determined. […] The fraction of persister cells was calculated as the ratio of the CFU/mL after ofloxacin treatment to the CFU/mL of the control flasks.

[7] = tested on: PA CSOM logarithmic culture; test: Persistence assay, PA CSOM; format: cell-based, Pseudomonas aeruginosa; conditions: ofloxacin 100 μg/mL, 24 h
Method: as §3, §4

[8] = tested on: PA01; test: Minimum inhibitory concentration against PA01; format: cell-based; conditions: Pseudomonas aeruginosa
[9] = tested on: P. aeruginosa clinical otopathogenic strain (PA CSOM) biofilm; test: MBEC Assay biofilm eradication, 48 h old PA CSOM biofilm; format: cell-based, Pseudomonas aeruginosa; conditions: 24 h treatment
Method: as §1, §2

[10] = tested on: biofilm; test: Biofilm eradication by cell-penetrating peptide alone; format: cell-based; conditions: CPP alone, spot plated on LB agar
Excerpt: FIG. 20: Cell-penetrating peptide alone cannot eradicate the biofilm; the entire entity of AuNCs was required for biofilm eradication. […] Each spot represents an independent experiment (n=3).

[11] = tested on: Klebsiella pneumoniae CDC 0044; test: MIC and MBC against Meropenem-resistant Klebsiella; format: cell-based; conditions: Meropenem-resistant strain, before combination

Molecule: CC1COc2c(N3CCN(C)CC3)c(F)cc3c(=O)c(C(=O)O)cn1c23 (centres unmarked) [ofloxacin]
- minimum biofilm eradication concentration (MBEC) [1]: 750 µg/mL
- MBEC [2]: 750 µg/mL
- MIC [3]: 52.5 to 100 µg/mL (≈ 145 to 277 µM)
- decrease in number of bacteria per milliliter (CFU/mL) [4]: 3 log 10
- remaining CFU [5]: 10^3
- fraction of persister cells of total bacteria population [6]: 0.0005%
- fraction of persister cells [7]: 0.07%
- MIC [8]: 1.6 to 3.3 µg/mL (≈ 4.43 to 9.13 µM)
- minimum biofilm eradication concentration (MBEC) [9]: > 3000 µg/mL

Molecule: Ac-(YGRKKRRQRRR SEQ ID NO:7)-(β-Ala)-(β-Ala)-(β-Ala)-Cys-CONH2 (N-acetyl, three beta-Ala, Cys amide; TAT cell-penetrating peptide) [CPP, cell-penetrating peptide alone, component of AuNC@CPP]
- concentration without any biofilm eradication [10]: > 4000 µg/mL

Molecule: C[C@@H](O)[C@H]1C(=O)N2C(C(=O)O)=C(S[C@@H]3CN[C@H](C(=O)N(C)C)C3)[C@H](C)[C@H]12 [Meropenem]
- MBC [11]: > 200 µg/mL
